Source: patent US9937182B2, “Therapeutic strategies for the treatment of preeclampsia” (UNIVERSITY OF IOWA RESEARCH FOUNDATION, priority 2013, dated 2018)
Entries after “also recorded” stand apart in the source; their conditions may differ. Like-named read-outs stand apart in the source and are kept apart here. One block for each compound: values may come before it.

Columns and labels:
abdominal aorta = assay: Abdominal aortic ring vascular reactivity (organ bath); type: cell-based, mice; conditions: for Emax: Mus musculus, relaxation after PGF2α contraction, read-out: Maximum Response; for Maximum Response: contractile response
Method: Aortic Vascular Reactivity: Abdominal aortic rings were assessed for vascular reactivity as previously described (32). Briefly, mice were euthanized by overdose of pentobarbital (50 mg, i.p.), and the abdominal aorta was quickly removed and placed in Kreb's buffer containing (in mmol/L): 118.3 NaCl, 4.7 KCl, 1.2 MgSO4, 1.2 KH2PO4, 25 NaHCO3, 2.5 CaCl2 and 11 glucose. Vascular rings (4-5 mm in length) were suspended in oxygenated Kreb's buffer (95% O2/5% CO2) in organ baths at 37° C. and connected to a force transducer via steel hooks. Resting tension was adjusted to 0.5 grams over 45 minutes. Contractile responses were tested in response to AVP (10^−10-10^−6 mol/L), phenylephrine (PE, 10^−8-3×10^−5), endothelin-1 (ET-1, 10^−10-10^−7), prostaglandin F2α (PGF2α, 10^−7-10^−4), and angiotensin II (Ang II, 10^−10-10^−7). Following sub-maximal contraction with PGF2α (40-50% of max; 3×10^−6-6×10^−6), relaxation responses to acetylcholine (10^−8-3×10^−5) and sodium nitroprusside (10^−9-10^−5) were determined.
(§1) Statistics: Data were analyzed by ANOVA with repeated measures as appropriate. Post-hoc analyses were performed using Bonferroni multiple-comparisons procedures. EC50 and maximum response calculations were performed by fitting individual dose-response data sets to a four-parameter logistic function (Hillslope method); y=min+([…])/(1+(x/EC50)^Hillslope). All mRNA fold changes were calculated using the Livak method (54). All analytical comparisons were performed using SigmaStat/SigmaPlot (Systat). All data are presented as mean±sem.

[1] = system: sRA mice and littermate controls; assay: Plasma vasopressin (ELISA) after BH4 treatment; type: in vivo; conditions: BH4 10 mg/kg/day i.p., three days
Method: Methods: Double-transgenic sRA mice and littermate controls were placed into single-mouse metabolic cages (Nalgene), and maintained on a 12:12 light:dark cycle at 22° C. with ad libitum access to standard chow (Teklad 7013) and water. Mice were injected once daily (i.p.) with BH4 to achieve 10 mg/kg/day. On the fourth day, mice were sacrificed by CO2 asphyxiation and trunk blood was collected into lithium heparin-coated tubes and placed on ice between 11:30 AM and 1:00 PM (5.5 to 7 hours into the light phase of the standard light cycle). Blood was then centrifuged at 2,000×g for 20 minutes. Plasma was collected and stored at −80° C. until analysis. Plasma samples were analyzed for vasopressin using a commercially-available ELISA kit (Cayman, catalog #583951), according to the manufacturer's instructions. Results falling outside the range of the standard curve (>3,000 pg/mL or <23.4 pg/mL) were set to the maximum or minimum (3,000 or 23.4 pg/mL), respectively, for statistical comparisons. Data were analyzed by three-way ANOVA followed by Tukey all-pairwise multiple comparison procedures.

[2] = system: isolated neurointermediate lobes; conditions: baseline and potassium-stimulated conditions; cited from earlier work
rats = conditions: euhydrated vs dehydrated; cited from earlier work
sRA mice [3] = assay: Tail-cuff systolic blood pressure during chronic subcutaneous antagonist infusion; type: in vivo; conditions: 22 ng/h sc, 10 days chronic infusion
sRA mice [4] = assay: Radiotelemetric blood pressure, heart rate and physical activity during antagonist infusion; type: in vivo
Method: Blood pressure (telemetry). Radiotelemetric blood pressures were recorded from the carotid artery essentially as previously reported (29). Briefly, a telemeter probe (DSI, model TA11PA-C10) was inserted into the common carotid artery under ketamine-xylazine anesthesia. After >2 days of recovery, blood pressure, heart rate, and spontaneous physical activity were recorded for 30 s every 5 min using the Dataquest program (DSI). After baseline recordings, mice were chronically delivered conivaptan and tolvaptan via osmotic minipump that was implanted through an interscapular incision into the subcutaneous space of the back under isoflurane anesthesia.

[5] = system: 2°-branch mesenteric artery; assay: Mesenteric artery vascular reactivity (pressurized myography); type: cell-based, mice; conditions: for Emax: Mus musculus, read-out: Maximum Response
Method: Mesenteric Artery Vascular Reactivity: Secondary branches of mesenteric artery were dissected and placed in chilled oxygenated (21% O2, 5% CO2, and 74% N2) Kreb's buffer. A segment (˜1 mm long) of artery was transferred to a vessel chamber (DMT), cannulated with glass micropipettes and secured with silk ligatures. The artery was slowly pressurized to 40 mmHg without flow. After 30 min equilibration, vessel viability was tested by constriction response to 100 mM KCl. Vascular responses to PE (10-9-10-5 mol/L), AVP (10-12-10-7 mol/L), and ET-1 (10-11-10-8 mol/L) were then assessed. The artery was then superfused with calcium-free Krebs buffer containing 10-5 mol/L sodium nitroprusside and 2 mmol/L EGTA to maximally dilate the vessel. Internal and external diameters were measured at 75 mm Hg. Wall thickness, media/lumen ratio and cross sectional area (CSA) were calculated as previously described by Neves, et al. (62).
as §1

[6] = system: sRA and control littermate mice; assay: Blood chemistry following tolvaptan infusion (iSTAT CHEM8+); type: in vivo; conditions: for Crenfinine: lower detection limit 0.20 mg/dl
Method: Blood pressure (tail-cuff). Here we first examined blood pressure in sRA mice using a Visitech Systems BP-2000 tail-cuff blood pressure monitoring system, as previously described (84). Briefly, animals were acclimated to warmed restraint boxes daily for 1 wk. Once acclimated, 30 measurements of systolic blood pressure were averaged from each animal daily for 2 wk to assess baseline blood pressure. Conivaptan (Vaprisol, YM 087, 22 ng/h sc, Baxter Healthcare) or tolvaptan (OPC-41061, 22 ng/h sc, Sigma Aldrich) was delivered to distinct subsets of mice by osmotic minipump (model 1004, Alzet). After osmotic minipump implantation, pressures were recorded daily for 10 days to assess drug effects.
Blood and urine analyses: Plasma was obtained by collecting whole blood by submandibular bleed into lithium heparin coated tubes, then centrifuged at 5,000×g for 5 minutes, and the supernatant transferred to a fresh tube and frozen at −80° C. until analysis. Urine was collected using Nalgene single-mouse metabolism cages as previously described (29). Copeptin was measured using an ELISA kit (USCN Life Sciences), according to the manufacturer's instructions. Blood chemistries and urine creatinine were determined using a handheld iSTAT clinical chemistry analyzer (Abbott), with CHEM8+ cartridges. Urine protein was determined using a bicinchoninic acid assay kit (Thermo Fisher/Pierce), according to the manufacturer's instructions.

[7] = system: polycystic kidney disease; conditions: average dose 95 mg per day over 3 years, cited from earlier work
[8] = system: patients with heart failure; conditions: with traditional diuretics; cited from earlier work
DOCA-salt hypertension = conditions: rats, intracerebroventricular (ICV) infusion; cited from earlier work
[9] = exemplar female sRA mouse, conivaptan 22 ng/h sc, 18 days
[10] = males, Control mice, tolvaptan 22 ng/h, 10 days sc

Structure (SMILES): CC(=O)OCC[N+](C)(C)C [Acetylcholine]
Emax (abdominal aorta; male Control mice): 78.9 ± 3.3% | Emax (abdominal aorta; male sRA mice): 70.4 ± 8.9%

Structure (SMILES): CC[C@H](C)[C@H](NC(=O)[C@H](Cc1ccc(O)cc1)NC(=O)[C@@H](NC(=O)[C@H](CCCNC(=N)N)NC(=O)[C@@H](N)CC(=O)O)C(C)C)C(=O)N[C@@H](Cc1c[nH]cn1)C(=O)N1CCC[C@H]1C(=O)N[C@@H](Cc1ccccc1)C(=O)O [Angiotensin II]
Maximum Response (abdominal aorta; male Control mice): 0.32 ± 0.03 g | Maximum Response (abdominal aorta; male sRA mice): 0.38 ± 0.03 g

Structure (SMILES): C[C@H](O)[C@H](O)[C@H]1CNc2[nH]c(N)nc(=O)c2N1 [BH4, (6R)-2-Amino-6-[(1R,2S)-1,2-dihydroxypropyl]-5,6,7,8-tetrahydropteridin-4(1H)-one]
steady-state plasma AVP levels ([1]; control littermate mice): no effect on steady-state AVP levels; also recorded: unchanged | steady-state plasma AVP levels ([1]; sRA mice): significant (P=0.017) reduction; also recorded: significantly (*P=0.017) reduced | vasopressin content [2]: reduces vasopressin content | neurohypophysial vasopressin (rats): reduces neurohypophysial vasopressin under euhydrated but not dehydrated conditions

Structure (SMILES): Cc1nc2c([nH]1)-c1ccccc1N(C(=O)c1ccc(NC(=O)c3ccccc3-c3ccccc3)cc1)CC2 [Conivaptan, N-(4-((4,5-dihydro-2-methylimidazo[4,5-d][1]benzazepin-6(1H)-yl)carbonyl)phenyl)-(1,1′-biphenyl)-2-carboxamide]
systolic blood pressure (tail-cuff) (sRA mice [3]): complete normalization of the hypertension | blood pressure (telemetry, MAP) (sRA mice [4]; [9]): gradual but substantial reduction in blood pressure | heart rate (telemetry) (sRA mice [4]; [9]): slight reduction in heart rate | spontaneous physical activity (sRA mice [4]; [9]): remained normal

Structure (SMILES): CC[C@H](C)[C@H](NC(=O)[C@H](CC(=O)O)NC(=O)[C@H](CC(C)C)NC(=O)[C@H](Cc1c[nH]cn1)NC(=O)[C@@H]1CSSC[C@H](N)C(=O)N[C@@H](CO)C(=O)N[C@H]2CSSC[C@H](NC(=O)[C@H](CCC(=O)O)NC(=O)[C@H](CCCCN)NC(=O)[C@H](CC(=O)O)NC(=O)[C@H](CCSC)NC(=O)[C@H](CC(C)C)NC(=O)[C@H](CO)NC(=O)[C@H](CO)NC2=O)C(=O)N[C@@H](C(C)C)C(=O)N[C@@H](Cc2ccc(O)cc2)C(=O)N[C@@H](Cc2ccccc2)C(=O)N1)C(=O)N[C@H](C(=O)N[C@@H](Cc1c[nH]c2ccccc12)C(=O)O)[C@@H](C)CC [Endothelin-1]
Maximum Response (abdominal aorta; male Control mice): 0.45 ± 0.04 g | Maximum Response (abdominal aorta; male sRA mice): 0.55 ± 0.09 g | Maximum Response ([5]; male Control mice): 67.8 ± 4.3% | Maximum Response ([5]; male sRA mice): 58.0 ± 4.6%

Structure (SMILES): CNC[C@H](O)c1cccc(O)c1 [Phenylephrine]
Emax ([5]; male Control mice): 67.3 ± 3% | Emax ([5]; male sRA mice): 64.5 ± 4.1%

Structure (SMILES): CCCCC[C@H](O)/C=C/[C@@H]1[C@@H](C/C=C\CCCC(=O)O)[C@@H](O)C[C@H]1O [Prostaglandin F2α]
Maximum Response (abdominal aorta; male Control mice): 1.59 ± 0.06 g | Maximum Response (abdominal aorta; male sRA mice): 1.50 ± 0.10 g

Crenfinine ([6]; females, Control mice, tolvaptan 22 ng/h, 10 days sc): 0.24 ± 0.02 mg/dL | Crenfinine ([6]; females, sRA mice, tolvaptan 22 ng/h, 10 days sc): 0.33 ± 0.04 mg/dL | Crenfinine [6, 10]: 0.25 ± 0.03 mg/dL | Crenfinine ([6]; males, sRA mice, tolvaptan 22 ng/h, 10 days sc): 0.30 ± 0.04 mg/dL
Structure (SMILES): Cc1ccccc1C(=O)Nc1ccc(C(=O)N2CCC[C@@H](O)c3cc(Cl)ccc32)c(C)c1 [Tolvaptan, N-(4-[[(5R)-7-chloro-5-hydroxy-2,3,4,5-tetrahydro-1H-1-benzazepin-1-yl]carbonyl]-3-methylphenyl)-2-methylbenzamide]
systolic blood pressure (tail-cuff) (sRA mice [3]): nearly identical normalization of blood pressure | blood pressure (radiotelemetry, MAP) (sRA mice [4]; cohort of sRA mice (n=4 female), tolvaptan sc infusion 10 days): blood pressure reduction was confirmed | hyponatremia and hypocalcemia of sRA mice ([6]; chronic tolvaptan delivery, genotype X drug interaction P<0.05 for both): corrected both of these imbalances | Sodium [6, 10]: 148 mM | reduction of the decline in kidney function compared with placebo [7]: approximately 30% | slowing of the usual increase in kidney volume compared to placebo [7]: 50% | increase in kidney volume ([7]; placebo 5.51, p<0.001): 2.80 % per year | reciprocal serum creatinine ([7]; placebo −3.81, p<0.001): −2.61 (mg/mL)-1 per year | excretion of excess fluids and blood sodium levels [8]: increase excretion of excess fluids and improve blood sodium levels | side effects [8]: without producing side effects such as hypotension (low blood pressure) or hypokalemia

Structure (SMILES): C[C@H](CS)C(=O)N1CCC[C@H]1C(=O)O [captopril]
DOCA-salt hypertension (DOCA-salt hypertension): both prevented and reversed DOCA-salt hypertension
